Legend:
[1] = tested on: models of hypovolemic shock; conditions: in vivo; cited from earlier work
[2] = tested on: patients with hypovolemic shock; test: phase III randomized, blinded, multicenter study in hypovolemic shock (NCT04045327); assay type: in vivo, human
Source text: ARDS in Shock Patients (N=105): Acute Respiratory Distress Syndrome (ARDS) was compared between day 1 (before resuscitation) and day 3 of resuscitation. In control patients receiving standard treatment the difference between means was 0.04839±0.05696 (P=0.4023). On the other hand, in centhaquine treated group the ARDS difference between means was 0.1065±0.04464 (P=0.0202).
MODS in Shock Patients (N=105): Multiple Organ Dysfunction Score (MODS) was compared between day 3 and day 7 of resuscitation. There was no improvement in MODS in the control group and the difference between means was 0.00±0.2697 (P>0.999), whereas in centhaquine group the difference between means was 0.9091±0.1964 (P=0.0001).

[3] = tested on: patients with hypovolemic shock; test: clinical phase II study in hypovolemic shock (NCT04056065); assay type: in vivo, human
COVID-19 patients [4] = test: centhaquine (Lyfaquin) in COVID-19 patients; assay type: in vivo, human; conditions: for slope of SpO2/FiO2 versus age of patient: basal slope −1.062
Description: The effect of centhaquine (Lyfaquin®) was determined COVID-19 patients. A significant improvement in oxygen saturation (SpO2) of COVID-19 patients by intravenous administration of centhaquine in the dose of 0.01 mg/kg was observed (FIG. 2). An improvement of SpO2 improved by 12.40 units within 2 hours of administration of centhaquine and further treatment with centhaquine led to an improvement of SpO2 by about 20 units.
We also determined the effect of age on the improvement in ratio of SpO2 and FiO2 (SpO2/FiO2) after administration of centhaquine (FIG. 3). […] Centhaquine (Lyfaquin®) improved SpO2/FiO2 in COVID-19 patients.
WHO Ordinal Scale was used to determine whether centhaquine (Lyfaquin®) improved the outcome of patients with COVID-19 (FIG. 5).

swine model of shock = conditions: in vivo; cited from earlier work
[5] = tested on: swine model of in hospital cardiac arrest; conditions: in vivo; cited from earlier work
[6] = tested on: patients with hypovolemic shock; test: combined / metanalysis of phase II and III trials in hypovolemic shock
Source text: In a 105-patient randomized, blinded, multicenter study (CTRI/2019/01/017196; NCT04045327) a total of 34 (22 male and 12 female) patients in control and 68 (41 male and 27 female) patients in centhaquine groups completed the study. […] In total 180 human subjects have been studied (combined phase I, II and III), out of which 155 were patients with hypovolemic shock.

healthy human subjects = test: Phase I safety study (NCT02408731); assay type: in vivo
Source text: Centhaquine has been evaluated for its safety, sensitivity and toxicity in various species for single and multiple doses and acute as well as chronic exposure (33).
Centhaquine has been evaluated for its safety, sensitivity and toxicity in various species for single and multiple doses and acute as well as chronic exposure (33). […] Safety and efficacy of centhaquine is established (Phase I, phase II and phase III clinical studies)

SARS-CoV-2 = conditions: cited from earlier work
[7] = tested on: SARS-CoV-2 viral load in nasopharyngeal swabs; conditions: 600 mg daily; day 6 post inclusion compared to controls; cited from earlier work
COVID-19 patients [8] = conditions: 13 patients; inhalation 10 mg; cited from earlier work

Q: Which survival [1] does the source give for Cc1cccc(N2CCN(CCc3ccc4ccccc4n3)CC2)c1 [centhaquine] here?
A: improves survival

Q: What about the “ARDS difference between means” value ([2]; day 1 (before resuscitation) vs day 3 of resuscitation, P=0.0202) of the same molecule?
A: 0.1065±0.04464

Q: What about the blood lactate levels ([2]; day 3 of resuscitation, compared to control, P=0.046) of the same molecule?
A: significantly lower

Q: What about the “MODS difference between means” value ([2]; day 3 vs day 7 of resuscitation, P=0.0001) of the same molecule?
A: 0.9091±0.1964

Q: What about the “adverse events related to centhaquine” value ([2]; phase III) of the same molecule?
A: NO adverse events

Q: What about the 28-day all-cause mortality ([2]; versus 11.76% with standard treatment, P=0.0742) of the same molecule?
A: 2.94%

Q: And the mortality ([3]; human, in vivo)?
A: reduced mortality

Q: What about the use of vasopressors ([3]; human, in vivo) of the same molecule?
A: reduction in use of vasopressors

Q: And the base-deficit ([3]; p<0.0001)?
A: highly significant efficacy

Q: And the blood pressure ([3]; p<0.0001)?
A: highly significant efficacy

Q: What about the lactate levels ([3]; p=0.0012) of the same molecule?
A: highly significant efficacy

Q: And the “adverse events related to centhaquine” value ([3]; phase II)?
A: NO adverse events

Q: What about the “slope of SpO2/FiO2 versus age of patient” value (COVID-19 patients [4]; at 2 hours of treatment) of the same molecule?
A: −0.5905

Q: What about the “slope of SpO2/FiO2 versus age of patient” value (COVID-19 patients [4]; at 4 hours of treatment) of the same molecule?
A: −0.2718

Q: And the “improvement in WHO Ordinal Scale, mean difference” value (COVID-19 patients [4]; at 72 hours of resuscitation, N=10, p=0.0169)?
A: 0.7444

Q: What about the “patients who did not need oxygen therapy” value (COVID-19 patients [4]; at 72 hours of treatment) of the same molecule?
A: Four out of 10

Q: And the “improvement of oxygen saturation (SpO2)” value (COVID-19 patients [4]; further treatment with centhaquine)?
A: about 20 units

Q: What about the “improvement of SpO2/FiO2” value (COVID-19 patients [4]; in 4 hours) of the same molecule?
A: 41.42 units

Q: What about the “improvement of SpO2/FiO2” value (COVID-19 patients [4]; within 2 hours) of the same molecule?
A: 34.48 units

Q: What about the “improvement of oxygen saturation (SpO2)” value (COVID-19 patients [4]; within 2 hours of intravenous centhaquine 0.01 mg/kg) of the same molecule?
A: 12.40 units

Q: What about the “Horowitz index (PaO2/FiO2 ratio)” value (swine model of shock) of the same molecule?
A: improved

Q: What about the pulmonary edema (swine model of shock) of the same molecule?
A: significantly reduced

Q: And the “efficacy as resuscitative agent” value [5]?
A: highly effective

Q: What about the mortality ([6]; 155 patients with hypovolemic shock, versus 9.68% with standard treatment) of the same molecule?
A: 2.15%

Q: What about the mortality odds ratio ([6]; 155 patients, 95% CI 1.162-24.18, P=0.0190) of the same molecule?
A: 4.875

Q: And the ARDS scores ([6]; N=155)?
A: significantly improved

Q: What about the MODS score ([6]; N=155) of the same molecule?
A: significantly improved

Q: And the mortality ([6]; metanalysis of phase II and III trials, versus 10.71%)?
A: 2.20%

Q: What about the mortality odds ratio ([6]; metanalysis of phase II and III, 95% CI 1.27-26.50, p=0.0271) of the same molecule?
A: 5.340

Q: And the safety and tolerability (healthy human subjects)?
A: safe and well tolerated

Q: With CCN(CC)CCCC(C)Nc1ccnc2cc(Cl)ccc12 (stereo not shown) [chloroquine] as the molecule, how does the “inhibition of SARS-CoV-2 in vitro” value (SARS-CoV-2) read?
A: effectively inhibit

Q: With CCN(CCO)CCCC(C)Nc1ccnc2cc(Cl)ccc12 (stereo not shown) [hydroxychloroquine] as the molecule, how does the viral carriage [7] read?
A: significant reduction

B1: plasminogen: plasminogen supplementation given by inhalation, 10 mg dissolved in 2 ml sterile water (protein, UniProt P00747 20-810, looked up)
Plasminogen: EPLDDYVNTQGASLFSVTKKQLGAGSIEECAAKCEEDEEFTCRAFQYHSKEQQCVIMAENRKSSIIIRMRDVVLFEKKVYLSECKTGNGKNYRGTMSKTKNGITCQKWSSTSPHRPRFSPATHPSEGLEENYCRNPDNDPQGPWCYTTDPEKRYDYCDILECEEECMHCSGENYDGKISKTMSGLECQAWDSQSPHAHGYIPSKFPNKNLKKNYCRNPDRELRPWCFTTDPNKRWELCDIPRCTTPPPSSGPTYQCLKGTGENYRGNVAVTVSGHTCQHWSAQTPHTHNRTPENFPCKNLDENYCRNPDGKRAPWCHTTNSQVRWEYCKIPSCDSSPVSTEQLAPTAPPELTPVVQDCYHGDGQSYRGTSSTTTTGKKCQSWSSMTPHRHQKTPENYPNAGLTMNYCRNPDADKGPWCFTTDPSVRWEYCNLKKCSGTEASVVAPPPVVLLPDVETPSEEDCMFGNGKGYRGKRATTVTGTPCQDWAAQEPHRHSIFTPETNPRAGLEKNYCRNPDGDVGGPWCYTTNPRKLYDYCDVPQCAAPSFDCGKPQVEPKKCPGRVVGGCVAHPHSWPWQVSLRTRFGMHFCGGTLISPEWVLTAAHCLEKSPRPSSYKVILGAHQEVNLEPHVQEIEVSRLFLEPTRKDIALLKLSSPAVITDKVIPACLPSPNYVVADRTECFITGWGETQGTFGAGLLKEAQLPVIENKVCNRYEFLNGRVQSTELCAGHLAGGTDSCQGDSGGPLVCFEKDKYILQGVTSWGLGCARPNKPGVYVRVSRFVTWIEGVMRNN
Q: With B1 as the molecule, how does the “patients with improved oxygen saturation” value (COVID-19 patients [8]) read?
A: 6 patients

Q: What about the “patients with improvement in density of 'ground glass' opacity” value (COVID-19 patients [8]) of the same molecule?
A: 5 patients
